Legend:
[1] = target: T1, Porcine ventricle myofibrils (ventricular myosin ATPase) (Sus scrofa, UniProt P79293); experiment: Myofibril ATPase assay, porcine ventricle myofibrils; type: biochemical, porcine (Yucatan minipigs)
T1 construct: Myofibrils from porcine cardiac muscle was isolated from the left ventricle of Yucatan minipigs; tissue Exemplar Genetics; host or cells: left ventricle of Yucatan minipigs, myofibrils prepared in house
Method in brief: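 ATPase activity of porcine left-ventricle myofibrils (Yucatan minipig) was followed through PK-LDH coupling as NADH loss at 340 nm, read every 1.5-2 min for 75 min. Slopes were normalised to vehicle wells and fitted to a 4-parameter logistic model. Values are Y75, the concentration giving a 25% drop in activity, or Y125 for activators.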

[2] = test system: Porcine atria myofibrils (atrial myosin ATPase); experiment: Myofibril ATPase assay, porcine atria myofibrils; type: biochemical
Method in brief: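 Coupled PK-LDH readout, NADH loss at 340 nm, kinetic 75 min. Porcine atria myofibrils, pCa buffer (PIPES/CaCl2/EGTA, pH 7.0). Slopes (mAU/min) normalized to vehicle = 100%, 4-parameter fit; Y75 or Y125 reported.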

[3] = test system: Rabbit Psoas myofibrils (skeletal myosin ATPase); experiment: Myofibril ATPase assay, rabbit psoas (skeletal) myofibrils; type: biochemical
Method in brief: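 Readout: A340 decline from NADH oxidation, PK/LDH-coupled to ADP release; kinetic reads over 75 min. Buffer: pCa (PIPES, CaCl2, EGTA), pH 7.0. Linear-regression slopes vs vehicle, 4PL fit; reported as concentration giving 75% (Y75) or 125% (Y125) of vehicle activity.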

[4] = porcine ventricle myofibrils, Y75 value
[5] = porcine atria myofibrils, Y75 value (75% activity relative to no compound)
[6] = rabbit psoas myofibrils, Y75 value
[7] = Y75 value (no ‡ mark), porcine ventricle myofibrils
[8] = Y75 value (no ‡ mark), porcine atria myofibrils
[9] = Y75 value (no ‡ mark), rabbit psoas myofibrils

T1 sequence (P79293 whole entry): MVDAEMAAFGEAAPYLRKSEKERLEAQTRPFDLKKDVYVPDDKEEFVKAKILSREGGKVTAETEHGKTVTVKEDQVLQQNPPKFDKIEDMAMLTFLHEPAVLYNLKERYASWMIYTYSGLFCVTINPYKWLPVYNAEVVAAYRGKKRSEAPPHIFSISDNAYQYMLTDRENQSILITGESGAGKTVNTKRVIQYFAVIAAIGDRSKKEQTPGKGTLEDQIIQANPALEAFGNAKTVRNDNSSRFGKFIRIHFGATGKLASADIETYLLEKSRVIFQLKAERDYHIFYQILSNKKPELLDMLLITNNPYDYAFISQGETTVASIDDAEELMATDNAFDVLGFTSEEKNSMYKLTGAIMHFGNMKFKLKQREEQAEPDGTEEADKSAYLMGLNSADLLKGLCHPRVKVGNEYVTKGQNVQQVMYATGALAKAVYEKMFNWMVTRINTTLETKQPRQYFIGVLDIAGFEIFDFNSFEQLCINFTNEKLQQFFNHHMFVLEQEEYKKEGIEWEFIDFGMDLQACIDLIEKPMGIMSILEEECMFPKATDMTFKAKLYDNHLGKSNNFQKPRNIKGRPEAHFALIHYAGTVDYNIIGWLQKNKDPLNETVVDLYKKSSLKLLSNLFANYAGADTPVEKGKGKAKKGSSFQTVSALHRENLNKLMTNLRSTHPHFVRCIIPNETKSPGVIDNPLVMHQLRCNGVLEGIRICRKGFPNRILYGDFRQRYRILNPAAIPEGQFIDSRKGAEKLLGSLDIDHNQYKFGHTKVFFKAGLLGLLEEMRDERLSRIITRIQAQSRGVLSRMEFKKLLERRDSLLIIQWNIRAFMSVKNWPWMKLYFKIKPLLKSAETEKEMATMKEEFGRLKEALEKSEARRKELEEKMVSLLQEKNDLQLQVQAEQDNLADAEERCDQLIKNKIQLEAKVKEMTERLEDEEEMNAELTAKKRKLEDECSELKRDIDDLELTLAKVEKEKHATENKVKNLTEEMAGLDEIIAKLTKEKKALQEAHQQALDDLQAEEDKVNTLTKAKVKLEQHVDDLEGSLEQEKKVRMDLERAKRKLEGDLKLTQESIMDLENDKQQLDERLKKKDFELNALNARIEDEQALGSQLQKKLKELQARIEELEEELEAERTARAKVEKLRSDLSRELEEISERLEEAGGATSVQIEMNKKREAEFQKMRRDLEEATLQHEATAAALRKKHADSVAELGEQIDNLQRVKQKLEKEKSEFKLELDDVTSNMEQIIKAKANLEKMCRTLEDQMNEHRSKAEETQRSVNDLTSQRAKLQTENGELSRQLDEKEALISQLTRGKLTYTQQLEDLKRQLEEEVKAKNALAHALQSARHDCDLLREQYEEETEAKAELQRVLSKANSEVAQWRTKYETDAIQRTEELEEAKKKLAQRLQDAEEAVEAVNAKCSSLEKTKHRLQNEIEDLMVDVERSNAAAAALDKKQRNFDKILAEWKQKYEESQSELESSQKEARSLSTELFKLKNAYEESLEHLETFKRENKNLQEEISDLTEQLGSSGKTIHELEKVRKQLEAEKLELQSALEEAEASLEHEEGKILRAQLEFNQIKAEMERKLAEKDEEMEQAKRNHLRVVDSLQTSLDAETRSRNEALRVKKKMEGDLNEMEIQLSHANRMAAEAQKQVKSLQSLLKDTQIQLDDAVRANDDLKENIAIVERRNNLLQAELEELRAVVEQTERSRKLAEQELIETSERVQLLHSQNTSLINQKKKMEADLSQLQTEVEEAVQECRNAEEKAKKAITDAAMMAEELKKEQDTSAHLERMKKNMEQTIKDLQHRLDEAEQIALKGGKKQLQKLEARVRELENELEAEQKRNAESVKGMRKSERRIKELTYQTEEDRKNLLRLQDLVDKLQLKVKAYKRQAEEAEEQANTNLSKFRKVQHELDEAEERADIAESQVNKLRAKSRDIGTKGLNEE

SMILES	Ventricular EC25 [1, 4]	Atrial EC25 [2, 5]	Skeletal EC25 [3, 6]	further results
C#Cc1nccc2[nH]c(=O)c(CC(=O)N[C@@H](C)c3cnc(N=[N+]=[N-])cc3C)c(C)c12 [compound 488]	4940 nM	12560 nM	1.15 µM	
Cc1c(CC(=O)N[C@@H](CO)c2ccc(F)cc2F)c(=O)[nH]c2ccc(C#N)nc12 [compound 211]	53990 nM	7020 nM	22.09 µM	
Cc1c(CC(=O)N[C@@H](CO)c2ncc(F)cc2F)c(=O)[nH]c2ccc(C#N)nc12 [compound 260]	100000 nM	2400 nM	33.76 µM	
Cc1nccc2[nH]c(=O)c(C(F)(F)C(=O)N[C@@H](C)c3ccc(F)cc3F)c(C)c12 [compound 405]	1120 nM	150 nM	0.04 µM	
C[C@H](NC(=O)Cc1cc2nc(Cl)ncc2[nH]c1=O)c1ccc(F)cc1F [compound 390]	44800 nM	100000 nM	7.06 µM	
Cc1ccc([C@@H](C)NC(=O)Cc2c(C)c3c(C)nccc3[nH]c2=O)cc1 (single isomer, unassigned) [compound 301]	100000 nM	100000 nM	100.00 µM	
Cc1c(C(C)C(=O)N[C@@H](C)c2ccc(F)cc2F)c(=O)[nH]c2ccnc(I)c12 (stereo partly drawn) [compound 349]	5410 nM	760 nM	0.13 µM	
C[C@H](NC(=O)Cc1cc2c(F)c(F)ccc2[nH]c1=O)c1ccc(C#N)cn1 [compound 18]				Ventricular EC25 [1, 7]: 260 nM; Atrial EC25 [2, 8]: 90 nM; Skeletal EC25 [3, 9]: 0.08 µM
Cc1c(CC(=O)N[C@@H](CO)c2ccc(C#N)cc2F)c(=O)[nH]c2ccc(C(F)(F)F)nc12 [compound 219]	7160 nM	120 nM	0.14 µM	
Cc1nccc2[nH]c(=O)c(CC(=O)N[C@@H](C)c3ccc(C#N)cc3F)c(F)c12 [compound 149]	100 nM	60 nM	0.02 µM	
Cc1cc([C@H](C)NC(=O)Cc2c(C)c3c(C)c(F)ccc3[nH]c2=O)ncc1F (single isomer, unassigned) [compound 2077]				Ventricular EC25 [1, 7]: 100000 nM; Atrial EC25 [2, 8]: 1500 nM; Skeletal EC25 [3, 9]: 0.29 µM
Cc1c(CC(=O)N[C@@H](C)c2ccc(C#N)cc2F)c(=O)[nH]c2ccnc(OC3CC3)c12 [compound 202]	830 nM	110 nM	0.11 µM	
Cc1nccc2[nH]c(=O)c(C(F)(F)C(=O)N[C@@H](C)c3ncc(C#N)cc3F)c(C)c12 (single isomer, unassigned) [compound 3517]	2110 nM	1120 nM	0.38 µM	
Cc1nccc2[nH]c(=O)c(CC(=O)N[C@@H](C)c3ccc(C#N)cc3F)c(Cl)c12 [compound 152]	90 nM	50 nM	0.01 µM	
Cc1c(C(F)(F)C(=O)N[C@@H](C)c2nc(C#N)cs2)c(=O)[nH]c2ccc(F)cc12 (single isomer, unassigned) [Compound 4010]				Ventricular EC25 ([1]; Y75 value: concentration required to reduce myosin ATP-ase activity by 25%, Porcine Ventricle Prep pCa 25 GEOM_MEAN): 19760 nM; Atrial EC25 ([2]; Y75 value: concentration required to reduce myosin ATP-ase activity by 25%, Porcine Atria Prep pCa 25 GEOM_MEAN): 740 nM; Skeletal EC25 ([3]; Y75 value: concentration required to reduce myosin ATP-ase activity by 25%, Rabbit Psoas Prep pCa 25 GEOM_MEAN): 2.38 µM
Cc1c(C(C)C(=O)N[C@@H](C)c2ccc(F)cc2F)c(=O)[nH]c2ccc(F)cc12 (stereo partly drawn) [compound 127]				Ventricular EC25 [1, 7]: 3120 nM; Atrial EC25 [2, 8]: 190 nM; Skeletal EC25 [3, 9]: 0.17 µM

SMILES	Ventricular EC25 [1, 4]	Atrial EC25 [2, 5]	Skeletal EC25 [3, 6]	further results
Cc1c(CC(=O)N[C@@H](C)c2ccc(C#N)cn2)c(=O)[nH]c2ccnc(C(F)(F)F)c12 [compound 156]	3120 nM	330 nM	0.21 µM	
Cc1c(C(F)(F)C(=O)N[C@H](CO)c2ncc(C#N)cc2F)c(=O)[nH]c2ccnc(C#N)c12 (single isomer, unassigned) [compound 3502]	310 nM	150 nM	0.08 µM	
Cc1c(CC(=O)N[C@@H](CO)c2ccc(F)cc2F)c(=O)[nH]c2ccnc(C#N)c12 [compound 230]	960 nM	110 nM	0.02 µM	
Cc1nnccc1[C@@H](C)NC(=O)Cc1c(C)c2cc(F)ccc2[nH]c1=O [compound 1090]				Ventricular EC25 [1, 7]: 100000 nM; Atrial EC25 [2, 8]: 5790 nM; Skeletal EC25 [3, 9]: 100.00 µM
C[C@H](NC(=O)Cc1cc2nc(C(F)(F)F)ccc2[nH]c1=O)c1ccc(F)cc1F [compound 397]	32400 nM	100000 nM	1.87 µM	
Cc1nccc2[nH]c(=O)c([C@@H](C)C(=O)N[C@@H](C)c3ccc(F)cc3F)c(C(F)(F)F)c12 (single isomer, unassigned) [compound 410]	100000 nM	5460 nM	0.76 µM	
Cc1c(F)ccc2[nH]c(=O)c(C(F)(F)C(=O)N[C@@H](C)c3ncc(C#N)cn3)c(C#N)c12 (single isomer, unassigned) [compound 2512]				Ventricular EC25 [1, 7]: 33470 nM; Atrial EC25 [2, 8]: 1530 nM; Skeletal EC25 ([3]; ‡ Y125 value, not a Y75 value (125% activity relative to no compound), rabbit psoas myofibrils): 100.00‡ μM
C[C@@H](NC(=O)Cc1cc2c(F)c(F)ccc2[nH]c1=O)c1cnc(C#N)cn1 (single isomer, unassigned) [compound 11]				Ventricular EC25 [1, 7]: 150 nM; Atrial EC25 [2, 8]: 50 nM; Skeletal EC25 [3, 9]: 0.07 µM
C[C@H](NC(=O)Cc1cc2c(C(F)(F)F)nccc2[nH]c1=O)c1ccc(F)cc1F [compound 435]	19100 nM	32520 nM	0.38 µM	
C[C@@H](NC(=O)Cc1cc2c(F)cc(F)cc2[nH]c1=O)c1ncc(C#N)cc1F [compound 1137]				Ventricular EC25 [1, 7]: 2510 nM; Atrial EC25 [2, 8]: 5320 nM; Skeletal EC25 [3, 9]: 5.34 µM
Cc1nc(C#N)ncc1[C@H](C)NC(=O)Cc1c(C)c2cc(F)ccc2[nH]c1=O [compound 1053]				Ventricular EC25 [1, 7]: 220 nM; Atrial EC25 [2, 8]: 120 nM; Skeletal EC25 [3, 9]: 0.04 µM
C[C@@H](NC(=O)Cc1cc2c(C#N)nccc2[nH]c1=O)c1ccc(C#N)cn1 [compound 472]	5930 nM	4050 nM	0.40 µM	
Cc1nccc2[nH]c(=O)c(CC(=O)Nc3c[nH]c4cc(F)cc(F)c34)c(C)c12 [compound 228]	100000 nM	100000 nM	100.00 µM	
Cc1c(CC(=O)N[C@H](C)c2ccc(C#N)cc2F)c(=O)[nH]c2ccc(F)c(C3CC3)c12 [compound 69]				Ventricular EC25 [1, 7]: 110 nM; Atrial EC25 [2, 8]: 30 nM; Skeletal EC25 [3, 9]: 0.01 µM
C[C@H](NC(=O)[C@H](C)c1cc2c(C#N)nccc2[nH]c1=O)c1ccc(F)cc1F (single isomer, unassigned) [compound 360]	100000 nM	100000 nM	0.05 µM	
CCN(CC)c1nccc2[nH]c(=O)c(CC(=O)N[C@@H](C)c3ccc(F)cc3F)c(C)c12 [compound 343]	9620 nM	2390 nM	1.55 µM	

Reference: patent publication US12448369B2 (Edgewise Therapeutics, Inc., priority 2023, dated 2025)
